Here are results for seven molecules from patent publication US6552053B2, “Controlling attention and memory by altering neuronal carbonic anhydrase activity” (The United States of America as represented by the …, priority 2000, dated 2003).

The structures appear in SMILES notation. “Also recorded” adds a separate entry of the source. Counter-ions that a name gives are not always drawn.

For series [1], the system named is GABAergic inputs to hippocampal CA1 pyramidal cells. Kind of series: Evoked GABAergic postsynaptic responses (IPSPs) of CA1 pyramidal cells. In kind it is cell-based, rat. The procedure:
(§1) Hippocampal slice electrophysiology. CA1 field potentials were recorded with glass microelectrodes filled with an artificial cerebrospinal fluid solution (ACSF; see below). […] Whole slices were used unless otherwise indicated. […] Signals were amplified with AxoClamp-2B amplifier, digitized, stored, and analyzed using DigiData 1200 with P-Clamp6 software (Axon Instruments). Frequency and amplitude values of oscillation were taken from an average of five consecutive traces, all triggered at the same level of the same phase. Capacitance was optimally adjusted during discontinuous current-clamp mode before and after cell penetration to neutralize capacitance and reduce overshoot/undershoot errors. Discontinuous single-electrode voltage-clamp mode was used for voltage-clamping, employing a sampling rate of 3.0-5.0 kHz (30% duty cycle). Gain was usually set at 6-8 nA·mV^−1, slightly below the maximum value without causing overshoot or instability in the step response to a repetitive 10 mV step command. Bipolar stimulating electrodes (Teflon-insulated PtIr wire with 25 μm in diameter) were placed in s. pyramidale, within 200 μm, from the recording electrode, for stimulation of interneurons (50 μA, 50 μA) in the pyramidale layer. In some cases, the position of the stimulating electrodes was slightly varied within the CA1 cell layer to obtain monophasic postsynaptic responses. […] In some experiments, an additional stimulating electrode was placed in the stratum radiatum to stimulate the Schaffer collateral pathway (Sch). Experiments in which >20% variations in the evoked IPSP magnitudes occurred during the 10-min control period were discarded.

In series [2] the test system is BAS-CA1 synapses of CA1 pyramidal cells. Kind of series: BAS-CA1 postsynaptic potentials of CA1 pyramidal cells (Example 2). It is filed as cell-based, rat. The following applies: for increase in evoked BAS-CA1 IPSPs: agent injected into the recorded pyramidal cell; for effect on CE action on BAS-CA1 PSP: agent injected into the recorded pyramidal cell before/with CE; for effect of ACET itself on BAS-CA1 IPSPs / effect on CE action on the synaptic response: ACET 10 μM. Here is the method: Chemicals. Cloned CE (without the C-terminal P-loop) containing a His9 leader sequence was expressed in BL21 (DE3) Escherichia coli cells and purified by repeated affinity chromatography on Ni^2+-charged His-Bind columns (Novagen). […] Heat-inactivated proteins (100° C. for 5 min) were used as control.
Electrophysiology. […] CA1 pyramidal cells were recorded intracellularly with sharp electrodes. Intracellular microelectrode recording rather than whole-cell clamp avoids immediate internal perfusion of the test proteins and agents into the cells and marked run-down of γ-aminobutyrate (GABA)-evoked currents. […] A bipolar stimulating electrode (Teflon-insulated PtIr wire 25 μm in diameter) was also placed in the stratum pyramidale, within 200 μm from the recording electrode, for stimulation of basket interneurons (BAS) (50 μA). In some experiments, an additional bipolar electrode was placed in the stratum radiatum to stimulate the Schaffer collateral pathway (SCH). CA1 neurons with stable resting membrane potential more negative than −70 mV were studied. […] Signals were amplified with AxoClamp-2B amplifier and digitized and stored by using a DigiData 1200 with the PCLAMP6 data collection and analysis software (Axon Instruments) and a Pentium PC computer. Experiments in which >20% variations in the evoked inhibitory postsynaptic potentials (IPSPs) during a 10 min control period occurred were discarded. Percent baseline PSP at each minute was calculated by dividing its value by baseline PSP then multiplying the result by 100. Baseline PSP was the mean of 10 min before treatments in each cell. A negative sign was added to indicate its inhibitory nature so that −100% is baseline IPSP and a positive value indicates an excitatory response. Differences were considered significant at P<0.05.

The conditions of series [3]: rat, intraperitoneal dose; cited from earlier work.
A short description of series [4]: Morris watermaze spatial memory task.
Series [5] relates to hippocampal CA1 pyramidal cells. Description: Intracellular recording of CA1 pyramidal cells: membrane potential θ, discharge, input resistance. In kind it is cell-based, rat. The procedure:
as §1

In series [6] the test system is hippocampal CA1 field potential. Kind of series: CA1 field potential θ oscillation in hippocampal slices. In kind it is cell-based, rat. The procedure: as §1
The subject of another series is RyR. The following applies: cited from earlier work.
Series [7] has as its system SCH-CA1 excitatory postsynaptic potentials. Kind of series: Schaffer collateral (SCH)-CA1 excitatory postsynaptic potentials. In kind it is cell-based, rat. The procedure:
Hippocampal slice electrophysiology. CA1 field potentials were recorded with glass microelectrodes filled with an artificial cerebrospinal fluid solution (ACSF; see below). Male Sprague-Dawley rats ([…]) were decapitated, and the brains were removed and cooled rapidly in an ACSF solution (˜4° C.), bubbled continuously with 95% O2-5% CO2. Hippocampi were sliced ([…]), placed in oxygenated ACSF (in mM: 124 NaCl, 3 KCl; 1.3 MgSO4; 2.4 CaCl2; 26 NaHCO3; 1.25 NaH2PO4; and 10 glucose), and perfused (2 ml/min) with the oxygenated ACSF in an interface chamber at 30-31 ° C. Whole slices were used unless otherwise indicated. CA1 pyramidal cells were recorded intracellularly (Sun, M. -K., Nelson, T. J., Xu, H., and Alkon, D. L. Calexcitin transformation of GABAergic synapses: from excitation filter to amplifier. Proc. Natl. Acad. Sci. USA 96: 7023-7028, 1999, for cell labeling) with sharp electrodes (3M KAc; tip resistance: 60-120 M; to prevent “run-down” of GABAergic responses in whole-cell recordings due to wash out of intracellular factors). […] Signals were amplified with AxoClamp-2B amplifier, digitized, stored, and analyzed using DigiData 1200 with P-Clamp6 software (Axon Instruments). […]
Electrophysiology. […] CA1 pyramidal cells were recorded intracellularly with sharp electrodes. […]

Series [8] shares this test system. The following applies: kynurenate 500 μM (Sun et al. 1999); cited from earlier work.
Where [9] appears, read: 30 min, listed as Acetazolamide.
[10] abbreviates: CA3 and dentate gyrus dissected away.
Setting [11] is: kynurenate 500 μM, 20-30 min, CCH-induced θ.

For `NS(=O)(=O)c1nnc(NS(=O)(=O)c2ccccc2)s1` [benzolamide], the “effect on CCH-induced reversed GABAergic responses” value in series [1] (intracellular application of benzolamide (0.1 mM in electrode)) was “prevented”.
On to `O=C(O)CN(CC(=O)O)c1ccccc1OCCOc1ccccc1N(CC(=O)O)CC(=O)O` [BAPTA, 1,2-bis(2-aminophenoxy)ethane-N,N,N′,N′-tetraacetic acid], for which, in series [2], the “increase in evoked BAS-CA1 IPSPs” value is reported as 17.4%±3.9% and the “effect on CE action on BAS-CA1 PSP” value is “not induced; also recorded: blocking”.
With `CC(=O)Nc1nnc(S(N)(=O)=O)s1` [ACET, acetazolamide], the “effect on CE-induced synaptic transformation” value in [2] (ACET 1 μM) was “eliminates”. Besides, in series [2] (ACET 1 μM, 30 min, vs −100% control value), the “BAS-CA1 IPSPs 30 min after CE injection in the presence of ACET” value is on record as −99.2±3.5%. Also, in series [2] (30 min), the “effect of ACET itself on BAS-CA1 IPSPs” value is listed as “sufficient to transform the BAS-CA1 IPSPs” and the “effect on CE action on the synaptic response” value was “abolishing effects of CE”. Besides, in [2] (setting [9]), the “effect of ACET itself on BAS-CA1 IPSPs” value is on record as “sufficient to maintain IPSPs” and the “effect on CE action on the synaptic response” value was “eliminating transformative effects of calexcitin”. Also, the “time to peak concentration in the blood” value in series [3] is no more than 1 h. Besides, the “evoked IPSP in the presence of ACET and CCH” value in [1] (bath ACET 1 μM, CCH 50 μM) was −7.7±1.0 mV. Also, the “reduction in escape latency during training trials vs saline group” value in [4] (ACET 5 mg/0.5 ml/day ip (14-18 mg/kg), 65-70 min before first trial) is given as “strikingly smaller reduction”. For the same molecule, in [4] (ACET 5 mg/0.5 ml/day ip during training), the “quadrant preference 24 h after last training trial” value is “no preference to a particular quadrant”. Also, in series [4] (during the experimental periods), the “signs of discomfort or abnormal behaviors” value is “no rats showed any apparent sign of discomfort or abnormal behaviors”. Moreover, the “memory retrieval: quadrant 4 preference vs saline control rats” value in [4] (single ACET injection (5 mg/0.5 ml) 24 h after last training trial of trained rats, test 65-70 min later) is listed as “no significant difference”. For the same molecule, in series [5], the “effect on calexcitin-induced intracellular θ activity” value was “did not induce; also recorded: prevented” and the “induction of intracellular θ activity by CCH in presence of ACET” value is given as “nor intracellular θ activity (n=10; FIG. 4B3) was induced”.
Turning to `CN1[C@@H]2CC[C@H]1C[C@@H](OC(=O)C(CO)c1ccccc1)C2` (stereo partly drawn) [atropine sulfate], the “effect on CCH-induced θ field activity” value in [6] is “blocked”.
As to `N.N.N.N.N.N.N.N.N.N.N.N.N.N.[Cl-].[Cl-].[Cl-].[Cl-].[Cl-].[Cl-].[O-2].[O-2].[Ru+3].[Ru+3].[Ru+4]` [RR, ruthenium red], in series [2], the “increase in evoked BAS-CA1 IPSPs” value is recorded as 16.3%±4.0% and the “effect on CE action on BAS-CA1 PSP” value was “effectively blocked”. The IC50 result in the series on RyR is given as “nanomolar range”.
For the molecule `C[N+](C)(C)CCOC(N)=O` [CCH, carbachol], in series [1] (30 min after CCH application, pre-CCH membrane potential maintained), the “GABAergic postsynaptic response after CCH” value is on record as “+5.1±0.4 mV”. Also, the “reversal potential of GABAergic postsynaptic responses” value in series [1] (during CCH 50 μM) is reported as −68.4±2.8 mV. The “response of pyramidal cells to stimulation of GABAergic inputs” value in [1] (in the presence of CCH, θ frequency stimulation) is reported as “elicited instantly phase-locked firing of pyramidal cells”. In addition, the “evoked GABAergic current after CCH (inward current)” value in [1] (voltage clamp, CCH 50 μM) is reported as 0.19±0.05 nA. For the same molecule, in series [5] (CCH), the “input resistance when θ activity became evident” value turned out to be 79.2±1.6 MΩ. In addition, the “θ oscillation of membrane potential (intracellular θ)” value in series [5] (CCH 50 μM) came out at 7.8±1.1 mV. Moreover, the averaged discharge rate in series [5] (CCH, 5-min observing period) was found to be 2.7±0.3 spikes/s. In addition, in [6] (setting [10]), the “CCH-induced θ activity amplitude in CA1 minislices” value was found to be 0.73±0.04 mV and the “CCH-induced θ activity frequency in CA1 minislices” value turned out to be 7.7±0.9 Hz. In addition, in [6] (CCH 50 μM, 20 min), the “duration of θ field potential (post-CCH recording period)” value is on record as roughly 3 h. For the same molecule, the “θ field potential peak amplitude” value in series [6] (CCH 50 μM, 20 min, bath applied, whole slices) turned out to be 0.75±0.03 mV. For the same molecule, the “θ field potential frequency” value in series [6] (CCH 50 μM, 20 min, whole slices) worked out at 7.8±0.8 Hz. Also, the “single-pulse SCH stimulation-evoked excitatory postsynaptic potential” value in series [7] (CCH) was “not altered”.
As to `O=C(O)c1cc(=O)c2ccccc2[nH]1` [KYN, kynurenic acid], in [2] (KYN 500 μM), the “BAS-CA1 IPSP in the presence of KYN” value is reported as −8.1±0.4 mV and the “reversal potential of BAS-CA1 PSPs in the presence of KYN” value is −78.9 mV. In series [2] (KYN 500 μM, 20 min), the “effect on evoked BAS-CA1 IPSPs” value is reported as “does not alter”. Further, the “excitatory postsynaptic responses of CA1 pyramidal cells to SCH stimulation” value in [8] is given as “effectively abolished”. Besides, in series [1] (kynurenate 500 μM), the “effect on evoked IPSPs” value is listed as “not altered”. For the same molecule, in [6] (setting [11]), the “θ oscillation frequency in presence of kynurenate” value was “did not change” and the “θ oscillation magnitude in presence of kynurenate” value was “slightly reduced”. Also, the “elimination of SCH-CA1 EPSPs” value in series [7] (KYN 500 μM, 20 min) is recorded as greater than 90%.
